Like-named read-outs stand apart in the source and are kept apart here. Residues, ends and D or L forms follow the SMILES beside them.
What was measured:
[1] = tested on: Meth A murine sarcoma cell line; type: cell-based; conditions: for IC50: 4 h
Procedure: Peptide solutions (0.1 ml) were added and the plates incubated at 37° C. for 30 minutes, 4 hours or 24 hours. The cytotoxicity was measured using the MTT method (Mosmann et al., J. Immunol. (1986) 136, 2348-2357).

[2] = tested on: Escherichia coli ATCC 25922; type: cell-based
Procedure: (§1) The bacterial strains used were: Escherichia coli ATCC 25922 and Staphylococcus aureus ATCC 25923. All strains were stored at −70° C. The bacteria were grown in 2% Bacto Peptone water (Difco 1807-17-4). All tests were performed with bacteria in mid-logarithmic growth phase. Determination of the minimum inhibitory concentration (MIC) of the peptides for bacterial strains were performed in 1% Bacto Peptone water. A standard microdilution technique with an inoculum of 2×10^6 CFU/ml was used. All assays were performed in triplets. Since the peptides are positively charged and therefore could adhere to the plastic wells, we controlled the actual concentration of the peptides in the solution by HPLC. There was no difference between the concentration of the peptides before or after adding the solution to the plastic wells.

[3] = tested on: Staphylococcus aureus ATCC 25923; type: cell-based
Procedure: as §1

[4] = tested on: MRC-5 cells (normal fibroblasts); assay: Fibroblast assay (MTT); type: cell-based
Procedure: The cells were washed with PBS and then trypsinated using 2 ml trypsin (for a 80 cm culture flask). After the cells had detached from the wall, usually after ca 3 min. of incubation, 5 ml medium with FBS were added. The cells were resuspended and counted. The cells were then transferred to a centrifugation tube and spinned at 1500 rpm for 10 min. The supernatant was removed and the cells resuspended to a concentration of 1×10^5 cells/ml. 100 ul cells suspension was transferred to each well in a 96-well microtiter plate and incubated for 25 hours to allow the cells to attach. Following the incubation, the medium containing serum was removed by turning the plate upside down against a piece of tissue. 100 ul medium without serum and L-glutamine (assay medium) was added to each well, and then removed as before. This was done to remove any trace of serum. […] The rest of the assay was done as previously described for methA, except that after the 2 hour incubation following MTT addition, 80 ul medium instead of 130 ul were removed.

[5] = tested on: human red blood cells; assay: Hemolytic assay; type: cell-based; conditions: for EC50: red cells of human
Procedure: The hemolytic activities of the peptides were determined using fresh human red blood cells. 8 ml blood was taken from a healthy person. 4 ml blood was transferred to a polycarbonate tube containing heparin to a final concentration of 10 U/ml, and the remaining 4 ml blood was transferred to a glass tube containing EDTA with final concentration of 15% EDTA. The erythrocytes were isolated from heparin-treated blood by centrifugation in 1500 rpm for 10 min and washed three times with phosphate-buffered saline (PBS) to remove plasma and buffy coat. The cell pellet was resuspended in PBS to make the final volume of 4 ml. The peptide was diluted to a concentration of 2 mg/ml and 0.1 mg/ml. The peptide was further diluted to the concentrations as stated in Table 1. For each tube PBS was added first, then RBCs and peptide solutions. The hematocrit in the blood treated with EDTA was determined after 30 min with Sysmex K-1000, and the resuspended RBCs were diluted into 10% hematocrit. RBCs in PBS (1%) with and without peptides (Table 18) were incubated in a shaker at […] for 1 hour and then centrifuged at 4000 rpm for 5 min. The supernatant were carefully transferred to new polycarbonate tubes and the absorbance of the supernatant was measured at 540 nm. Baseline hemolysis was hemoglobin released in the presence of PBS, and 100% hemolysis was hemoglobin released in the presence of 0.1% Triton X-100.

[6] = tested on: E. coli; conditions: from the literature; cited from earlier work
[7] = tested on: S. aureus; conditions: from the literature; cited from earlier work
[8] = tested on: fibroblasts; conditions: cited from earlier work
[9] = tested on: human erythrocytes; conditions: cited from earlier work

CSCC[C@H](NC(=O)[C@H](CCCNC(=N)N)NC(=O)[C@H](C)NC(=O)[C@H](C)NC(=O)[C@H](Cc1c[nH]c2ccccc12)NC(=O)[C@H](CCCNC(=N)N)NC(=O)[C@H](Cc1ccccc1)NC(=O)[C@H](C)NC(=O)[C@H](CCCCN)NC(=O)[C@H](CCCNC(=N)N)NC(=O)[C@H](Cc1c[nH]c2ccccc12)NC(=O)[C@H](C)NC(=O)[C@@H]1CCCN1)C(=O)N[C@@H](CC(C)C)C(=O)N[C@@H](CCCCN)C(=O)N[C@@H](CCCCN)C(=O)N[C@@H](C)C(=O)N[C@@H](C)C(=O)O [W11→A11, LFB 14-31A2,6,10,11,17F7K16L14R4] (H-PAWRKAFRWAARMLKKAA-OH; N-terminus and C-terminus assumed)
fold decrease in activity against Meth A compared to LFB(14-31)m [1]: 1.5 fold
IC50 [1]: 11 µM
Mic E-coli ([2]; ATCC 25922): 4.6 µM
Mic S. Aureus ([3]; ATCC 25923): >1.2 µM

CSCC[C@H](NC(=O)[C@H](CCCNC(=N)N)NC(=O)[C@H](C)NC(=O)[C@H](C)NC(=O)[C@H](C)NC(=O)[C@H](CCCNC(=N)N)NC(=O)[C@H](Cc1ccccc1)NC(=O)[C@H](C)NC(=O)[C@H](CCCCN)NC(=O)[C@H](CCCNC(=N)N)NC(=O)[C@H](Cc1c[nH]c2ccccc12)NC(=O)[C@H](C)NC(=O)[C@@H]1CCCN1)C(=O)N[C@@H](CC(C)C)C(=O)N[C@@H](CCCCN)C(=O)N[C@@H](CCCCN)C(=O)N[C@@H](C)C(=O)N[C@@H](C)C(=O)O [W9,11→A9,11, LFB 14-31A2,6,9,10,11,17F7K16L14R4] (H-PAWRKAFRAAARMLKKAA-OH)
IC50 [1]: 110 µM
IC50 [4]: > 489 µM
toxicity to fibroblasts [4]: no cytotoxic activity
cytotoxic / hemolytic activity against red blood cells [5]: no cytotoxic activity
EC50 [5]: > 489 µM
Mic E-coli ([2]; ATCC 25922): 14.7 µM
Mic S. Aureus ([3]; ATCC 25923): 14.7 µM

CSCC[C@H](NC(=O)[C@H](CCCNC(=N)N)NC(=O)[C@H](Cc1c[nH]c2ccccc12)NC(=O)[C@H](C)NC(=O)[C@H](Cc1c[nH]c2ccccc12)NC(=O)[C@H](CCCNC(=N)N)NC(=O)[C@H](Cc1ccccc1)NC(=O)[C@H](C)NC(=O)[C@H](CCCCN)NC(=O)[C@H](CCCNC(=N)N)NC(=O)[C@H](C)NC(=O)[C@H](C)NC(=O)[C@@H]1CCCN1)C(=O)N[C@@H](CC(C)C)C(=O)N[C@@H](CCCCN)C(=O)N[C@@H](CCCCN)C(=O)N[C@@H](C)C(=O)N[C@@H](C)C(=O)O [W3→A3, LFB 14-31A2,3,6,10,17F7K16L14R4] (H-PAARKAFRWAWRMLKKAA-OH)
toxicity to fibroblasts [4]: little toxicity against fibroblasts
Mic E-coli ([2]; ATCC 25922): 6.9 µM
Mic S. Aureus ([3]; ATCC 25923): 4.6 µM

CC[C@H](C)[C@H](NC(=O)[C@H](C)NC(=O)[C@@H]1CCCN1)C(=O)N[C@@H](CCCNC(=N)N)C(=O)N[C@@H](CCCCN)C(=O)N[C@@H](C)C(=O)N[C@@H](Cc1ccccc1)C(=O)N[C@@H](CCCNC(=N)N)C(=O)N[C@@H](Cc1c[nH]c2ccccc12)C(=O)N[C@@H](C)C(=O)N[C@@H](Cc1c[nH]c2ccccc12)C(=O)N[C@@H](CCCNC(=N)N)C(=O)N[C@@H](CCSC)C(=O)N[C@@H](CC(C)C)C(=O)N[C@@H](CCCCN)C(=O)N[C@@H](CCCCN)C(=O)N[C@@H](C)C(=O)N[C@@H](C)C(=O)O [W3→I3] (H-PAIRKAFRWAWRMLKKAA-OH; N-terminus and C-terminus assumed)
Mic E-coli ([2]; Table 2): 2/4
Mic S. Aureus ([3]; Table 2): 2/4

CC[C@H](C)[C@H](NC(=O)[C@H](C)NC(=O)[C@@H](NC(=O)[C@H](CCCNC(=N)N)NC(=O)[C@H](Cc1ccccc1)NC(=O)[C@H](C)NC(=O)[C@H](CCCCN)NC(=O)[C@H](CCCNC(=N)N)NC(=O)[C@H](Cc1c[nH]c2ccccc12)NC(=O)[C@H](C)NC(=O)[C@@H]1CCCN1)[C@@H](C)CC)C(=O)N[C@@H](CCCNC(=N)N)C(=O)N[C@@H](CCSC)C(=O)N[C@@H](CC(C)C)C(=O)N[C@@H](CCCCN)C(=O)N[C@@H](CCCCN)C(=O)N[C@@H](C)C(=O)N[C@@H](C)C(=O)O [W9,11→I9,11] (H-PAWRKAFRIAIRMLKKAA-OH; N-terminus and C-terminus assumed)
IC50 [1]: 22 µM
IC50 [4]: 26 µM
EC50 [5]: 284 µM
Mic E-coli ([2]; ATCC 25922): 35 µM
Mic S. Aureus ([3]; ATCC 25923): 19 µM

(KAAKKAA)3
MIC against E. coli [6]: 8 µM
MIC against S. aureus [7]: 8 µM
activity against fibroblasts [8]: no measurable activity
activity against human erythrocytes [9]: no measurable activity

CSCC[C@H](NC(=O)[C@H](CCCNC(=N)N)NC(=O)[C@H](Cc1c[nH]c2ccccc12)NC(=O)[C@H](C)NC(=O)[C@H](C)NC(=O)[C@H](CCCNC(=N)N)NC(=O)[C@H](Cc1ccccc1)NC(=O)[C@H](C)NC(=O)[C@H](CCCCN)NC(=O)[C@H](CCCNC(=N)N)NC(=O)[C@H](Cc1c[nH]c2ccccc12)NC(=O)[C@H](C)NC(=O)[C@@H]1CCCN1)C(=O)N[C@@H](CC(C)C)C(=O)N[C@@H](CCCCN)C(=O)N[C@@H](CCCCN)C(=O)N[C@@H](C)C(=O)N[C@@H](C)C(=O)O [W9→A9, LFB 14-31A2,6,9,10,17F7K16L14R4] (H-PAWRKAFRAAWRMLKKAA-OH; N-terminus and C-terminus assumed)
Mic E-coli ([2]; ATCC 25922): 4.6 µM
Mic S. Aureus ([3]; ATCC 25923): 2.4 µM
